Data on 3 molecules can be found in article PMC5390247, “New method for quantification of gasotransmitter hydrogen sulfide in biological matrices by LC-MS/MS” (Scientific Reports, 2017).

Assay [1] addresses T1, yeast CSE enzyme (CYS3) (Saccharomyces cerevisiae, UniProt P31373).
T1 construct: full-length CYS3 gene amplified from S288C gDNA, expressed in E. coli (pTrc-CYS3), nickel column, SUMO-tag cut off
T1 sequence (P31373 2-394): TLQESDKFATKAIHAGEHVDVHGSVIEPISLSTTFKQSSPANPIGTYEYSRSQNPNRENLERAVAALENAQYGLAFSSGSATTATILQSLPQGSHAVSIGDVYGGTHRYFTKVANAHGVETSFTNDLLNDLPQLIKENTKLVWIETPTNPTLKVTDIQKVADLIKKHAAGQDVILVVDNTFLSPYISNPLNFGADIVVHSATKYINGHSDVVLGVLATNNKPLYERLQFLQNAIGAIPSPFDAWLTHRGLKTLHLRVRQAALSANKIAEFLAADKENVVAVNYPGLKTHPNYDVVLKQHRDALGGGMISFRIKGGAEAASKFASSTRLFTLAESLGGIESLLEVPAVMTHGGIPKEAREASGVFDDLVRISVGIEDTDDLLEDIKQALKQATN
As to the kind of experiment: H2S production from SPRC by LC-MS/MS (sulfide dibimane). It counts as biochemical. The settings on record: 473 uM PAG; 473 uM SPRC as substrate; complete inhibition stated in words.

Assay [2] addresses T1, yeast CSE enzyme (CYS3). Kind of assay: H2S production by LC-MS/MS and substrate consumption. The format is biochemical.

Turning to `C#CCC(N)C(=O)O` (racemic) [PAG, propargylglycine], in assay [1], the “H2S production from SPRC by LC-MS/MS (sulfide dibimane)” value is on record as “propargylglycine (PAG) completely inhibited the hydrogen sulfide production of CYS3 by using SPRC”.
In the case of `N[C@@H](CCSC[C@H](N)C(=O)O)C(=O)O` [CTT, L-cystathionine], the “H2S production by LC-MS/MS and substrate consumption” value in assay [2] (473 uM CTT) is listed as “hydrogen sulfide production increased rapidly whereas the amount of L-cystathionine (CTT) decreased accordingly”.
Take `C#CCSC[C@H](N)C(=O)O` [SPRC, S-propargyl-cysteine]: in assay [2] (473 uM SPRC), the “H2S production by LC-MS/MS and substrate consumption” value was “SPRC elimination was accomplished with increased level of hydrogen sulfide in the CYS3 mixture”.
